From patent publication US4716159A, “Pyridazino[4,3-c]-isoquinolines having anti-anxiety activity” (Gruppo Lepetit, S.p.A., priority 1983, dated 1987)

Legend:
[1] = target: benzodiazepine receptor; assay: benzodiazepine receptor test (displacement of 3H-diazepam from rat brain receptors); assay type: binding; settings: for Ki: 3H-diazepam, unit inferred; for Inhibition % of the 3H diazepam binding: test compound at 3,6 μM
Description: The anti-anxiety activity of the compounds of the present invention was first detected by submitting some representative compounds to the benzodiazepine receptor test. […] Our experiments were carried out by following the method described by H. Moand T. Okada in Life Sciences, Vol. 20, 2101-2110 (1977).
of the test compound of 3,6 μM.

[2] = test system: mice; assay: anti-bicuculline test in mice; assay type: in vivo; settings: for prevention of seizures (bicuculline): i.p. (highest dose tested), bicuculline 2 mg/kg s.c., compound 30 min before
Description: The experiments were conducted essentially following the methodology described by P. De La Mora et R. Tapia in Biochem. Pharmac. 22, 2635-2639 (1973). A dose of bicuculline (2 mg/kg, s.c.) was administered to groups of ten mice each which had been given a fixed dose of the text compound 30 minutes before treatment. […] The significance of this fact has not yet been completely clarified since it was first described only recently for two quinoline derivatives (see G. Le Fur et al., Life Sci., 28, 1439-1448 (1981)). […] The favourable pharmacological properties of the compounds of the present invention are accompanied by a generally low toxicity, as in fact the acute toxicity of the compounds of the present invention is in general from 200 to more than 600 mg/kg, i.p. In view of the above, the use of the compounds of the present invention as anticonvulsant and antianxiety agents is a further specific object of the present invention. With the term "use" it is intended to refer to all industrially applicable aspects and acts of said use, including the embodiment of the novel compounds into pharmaceutical compositions.

[3] = test system: rats; assay: conflict test in rats (punished responding, Vogel method as modified by Lippa); assay type: in vivo, rat; settings: i.p., 60 minutes after administration; for minimal effective dose: Rattus norvegicus, ip, 1 h, read-out: MED (minimal effective dose which significantly increased the number of shocks)
Description: The ability of the compounds of the present invention to increase punished responding in animals in a conflict situation, a procedure with high validity for predicting the anxiolytic effect of drugs, was assessed by testing these compounds in rats according to the method described by J. R. Vogel, B. Beer, D. E. Clody in Psycopharmacologia 21, 1-7, (1971) as modified by A. S. Lippa et al., in "Anxiolytics, Industrial Pharmacology",Vol. 3, Futura Publishing, 1979, pages 41-81.
Briefly, rats are deprived of water for 48 hours and deprived of food for 20 hours prior to testing. Sixty minutes after administration of the test compound each rat is placed in an specially equipped cage. A glucose solution is available from a tap located in the rear of the cage. A constant pulsating shocking current is connected between the grid floor and the tap. Each rat is allowed 20 seconds of non-shocked drinking, then cycles of 5 seconds shock-off and 5 seconds shock-on began. During the shock-on period each lick on the top is accompanied by shock. The number of shocks received by each animal is recorded and minimal effective doses are determined.

[4] = test system: mice; assay: antipentylenetetrazole assay in mice; assay type: in vivo; settings: for prevention of tonic extensor seizures (pentylenetetrazole): pentylenetetrazole 140 mg/kg s.c., compound 30 min before
Description: The antipentylenetetrazole assay in mice have been carried out by essentially following the methodology described by Berger in J. Pharm. Exptl. Ther. 104, 468, (1952). A fatal dose of pentylenetetrazole (140 mg/kg, s.c.) was administered to groups of ten mice each, treated, 30 minutes before the administration of the convulsant agent, with a selected dose of the test compound.

[5] = 100 mg/kg (highest dose tested)

Molecule	Ki [1]	prevention of seizures (bicuculline) ([2]; 100 mg/kg)	prevention of tonic extensor seizures (pentylenetetrazole) ([4]; 50 mg/kg (highest dose tested))	Inhibition % of the 3H diazepam binding [1]	minimal effective dose [3]	other results
3-Methyl-pyridazino[4,3-c]isoquinoline [Example 32]	245 nM	failed to prevent seizures	uneffective	–	–	MED (minimal effective dose which significantly increased the number of shocks) [3]: 20 Mg/Kg
CN1C(=O)CN=C(c2ccccc2)c2cc(Cl)ccc21 [Diazepam, reference compound]	–	–	–	–	–	ED50 ([2]; Mus musculus, ip, 0.5 h, i.p., same experiment, read-out: ED50 (dose which prevents tonic extensor seizures in 50% of the treated animals), bicuculline): 0.18 mg/kg; ED50 ([4]; Mus musculus, ip, 0.5 h, i.p., same experiment, read-out: ED50 (dose which prevents tonic extension seizures in 50% of the treated animals), pentylenetetrazole): 0.2 mg/kg
Clc1nc2cc(-c3ccccc3)nnc2c2ccccc12 [Example 1, 6-Chloro-3-phenyl-pyridazino-[4,3-c]-isoquinoline]	–	–	–	-36%	–	–
CN(C)c1nc2cc(-c3ccccc3)nnc2c2ccccc12 [Example 2, 3-Phenyl-N,N-dimethyl-pyridazino-[4,3-c]-isoquinolin-6-amine]	28.4 nM	failed to prevent seizures	uneffective	–	10 mg/kg	–
CCN(C)c1nc2cc(-c3ccccc3)nnc2c2ccccc12 [Example 3, N-ethyl-3-phenyl-N-methylpyridazino-[4,3-c]-isoquinolin-6-amine]	65.2 nM	–	–	–	10 mg/kg	prevention of seizures (bicuculline) ([2]; 50 mg/kg): uneffective; prevention of tonic extensor seizures (pentylenetetrazole) [4, 5]: failed to prevent tonic extensor seizures
CC(O)CN(C)c1nc2cc(-c3ccccc3)nnc2c2ccccc12 (centres unmarked) [Example 4, 1-[(3-Phenyl-pyridazino[4,3-c]isoquinolin-6-yl)methylamino]-2-propanol]	136 nM	–	–	–	30 mg/kg	prevention of seizures (bicuculline) ([2]; 50 mg/kg): uneffective; prevention of tonic extensor seizures (pentylenetetrazole) [4, 5]: failed to prevent tonic extensor seizures
c1ccc(-c2cc3nc(N4CCCC4)c4ccccc4c3nn2)cc1 [Example 5, 3-phenyl-6-(1-pyrrolidinyl)pyridazino-[4,3-c]isoquinoline]	11.4 nM	–	–	–	5 mg/kg	prevention of seizures (bicuculline) ([2]; 50 mg/kg): uneffective; prevention of tonic extensor seizures (pentylenetetrazole) [4, 5]: failed to prevent tonic extensor seizures
c1ccc(-c2cc3nc(N4CCOCC4)c4ccccc4c3nn2)cc1 [Example 6, 3-Phenyl-6-(4-morpholinyl)pyridazino[4,3-c]-isoquinoline]	152 nM	–	–	–	15 mg/kg	prevention of seizures (bicuculline) ([2]; 50 mg/kg): uneffective; prevention of tonic extensor seizures (pentylenetetrazole) [4, 5]: failed to prevent tonic extensor seizures
CCOc1nc2cc(-c3ccccc3)nnc2c2ccccc12 [Example 9, 6-Ethoxy-3-phenyl-pyridazino [4,3-c]isoquinoline]	1480 nM	–	–	–	–	–
CC(C)Oc1nc2cc(-c3ccccc3)nnc2c2ccccc12 [Example 10]	1900 nM	–	–	–	–	–
COc1ccc(-c2cc3nc(N(C)C)c4ccccc4c3nn2)cc1 [Example 13, N,N-dimethyl-3-(4-methoxyphenyl)pyridazino[4,3-c]isoquinolin-6-amine]	63.3 nM	failed to prevent seizures	uneffective	–	10 mg/kg	–
COc1ccc(-c2cc3nc(N(C)CC(C)O)c4ccccc4c3nn2)cc1 (centres unmarked) [Example 14]	221 nM	failed to prevent seizures	uneffective	–	30 mg/kg	–
COCCN(CCOC)c1nc2cc(-c3ccc(OC)cc3)nnc2c2ccccc12 [Example 15, N,N-bis(2-methoxyethyl)-3-(4-methoxyphenyl)pyridazino[4,3-c]isoquinolin-6-amine]	1180 nM	failed to prevent seizures	uneffective	–	10 mg/kg	–
CCOC(=O)CCCN(C)c1nc2cc(-c3ccc(OC)cc3)nnc2c2ccccc12 [Example 16]	–	–	–	-69%	–	–
COc1ccc(-c2cc3nc(N4CCC4)c4ccccc4c3nn2)cc1 [Example 17, 6-(1-Azetidinyl)-3-(4-methoxyphenyl)pyridazino[4,3-c]isoquinoline]	130 nM	failed to prevent seizures	uneffective	–	30 mg/kg	–
COc1ccc(-c2cc3nc(N4CCCC4)c4ccccc4c3nn2)cc1 [Example 18]	18.7 nM	failed to prevent seizures	uneffective	–	20 mg/kg	–
COc1ccc(-c2cc3nc(N4CCCCC4)c4ccccc4c3nn2)cc1 [Example 19, 3-(4-Methoxyphenyl)-6-(1-piperidinyl)-pyridazino[4,3-c]isoquinoline]	–	failed to prevent seizures	uneffective	-70%	10 mg/kg	–
COc1ccc(-c2cc3nc(N4CCOCC4)c4ccccc4c3nn2)cc1 [Example 20, 3-(4-Methoxyphenyl)-6-(4-morpholinyl)-pyridazino[4,3-c]isoquinoline]	–	failed to prevent seizures	uneffective	-76%	30 mg/kg	–
CCOC(=O)C1CCN(c2nc3cc(-c4ccc(OC)cc4)nnc3c3ccccc23)CC1 [Example 21]	–	–	–	-39%	–	–
CCOC(=O)N1CCN(c2nc3cc(-c4ccc(OC)cc4)nnc3c3ccccc23)CC1 [Example 22]	–	–	–	-61%	–	–
COCCOc1nc2cc(-c3ccc(OC)cc3)nnc2c2ccccc12 [Example 24, 6-(2-Methoxyethoxy)-3-(4-methoxyphenyl)pyridazino[4,3-c]isoquinoline]	–	–	–	-47%	–	–
Clc1ccc(-c2cc3nc(N4CCCC4)c4ccccc4c3nn2)cc1 [Example 27, 3-(4-Chlorophenyl)-6-(l-pyrrolidinyl)pyridazino[4,3-c]isoquinoline]	–	–	–	-63%	–	–
